Source: publication PMC11948302, “OATP1B-type Transport Function Is a Determinant of Aromatase Inhibitor–Associated Arthralgia Susceptibility” (Cancer Research Communications, 2025)
Marks after values point to notes of the source that are not given here.

Legend:
mice [1] = test: Histopathology of knee joints after chronic letrozole; format: in vivo; conditions: mice receiving multiple doses of letrozole (0.1 mg/kg/day, 15 days)
Protocol: At the end of the chronic letrozole treatment, hind limbs of three randomly selected mice per group were collected, peeled for skin, and preserved in 10% neutral buffered formaline at room temperature for at least 48 hours until tissue processing. Tissues from the hind limbs were routinely processed for histopathology on a Leica Peloris 3 Tissue Processor (Leica Biosystems), embedded in paraffin, sectioned at an approximate thickness of 4 to 5 μm, and batch stained with hematoxylin and eosin on a Leica ST5020 autostainer using a routine and quality-controlled protocol. Slides were evaluated and representative photomicrographs were taken by a board-certified veterinary pathologist using a Nikon Eclipse Ci-L Upright Microscope (Nikon Instruments, Inc.) with attached 18 megapixel Olympus SC180 microscope-mounted digital camera and cellSens imaging software (Olympus Life Science).

[2] = In vivo pharmacokinetic studies in mice (plasma and liver, LC/MS-MS); conditions: for AUC fold change vs. WT: 95% confidence interval; for AUC(0-t) / Cmax: female, FVB, mouse, plasma, po, 10 mg/kg
Protocol: The analysis was conducted using a Vanquish UHPLC aligned with a Quantiva triple-stage quadrupole mass spectrometer (Thermo Fisher Scientific). An ACQUITY UPLC BEH C18 Column (130 Å, 1.7 μm, 2.1 mm × 50 mm, Waters Co.) protected by ACQUITY UPLC BEH Shield RP18 VanGuard Pre-column (130 Å, 1.7 μm, 2.1 mm × 5 mm, Waters Co.) was used for analyte separation. The injection volume of the sample was 10 μL. The temperature of the column was kept at 40°C, whereas the autosampler rack was kept at 4°C. The mobile phase consisted of solvent A, which was a solution of 0.1% acetic acid in LC/MS-grade water, and solvent B, which was a solution of 0.1% formic acid in acetonitrile. The total run time was 4.5 minutes. The following were the gradient conditions: 0.3 mL/minutes was the flow rate for the following intervals: 0 to 0.5 minutes, 30% B; 0.5 to 3.0 minutes, 30% to 95% B; 3.0 to 4.0 minutes, 95% B; and 4.001 to 4.5 minutes, 95% to 30% B. The vaporizer was adjusted to 360°C, and the ion transfer tube temperature was 340°C. The mass spectrometry assay was configured with a positive voltage of 3600 V delivered to the ESI capillary. The collision gas utilized was argon, with a pressure of 1.5 mTorr. The mass spectrometer was set up with the following optimized parameters: 1 arbitrary unit (Arb) for sweep gas, 5 Arb for auxiliary gas, and 25 Arb for sheath gas. […] The accuracy, expressed as a percent bias varied from −7.80% to 5.10%, whereas the inter-assay and intra-assay precisions ranged from 2.19% to 7.09% according to the results of assay validation tests. The lower limit of quantification was 0.4 ng/mL.
Letrozole was quantified using an LC/MS-MS method described previously ([14]). A Vanquish UHPLC and Quantiva triple-stage quadrupole mass spectrometer (Thermo Fisher Scientific) were used in the analysis. Analytes were separated chromatographically using a C18 AQUASIL guard cartridge (2.1 mm × 10 mm, 3 μm; Thermo Fisher Scientific) and an Accucore aQ column (50 mm × 2.1 mm, 2.6 μm). The temperature of the column was set at 40°C, whereas the autosampler was kept at 4°C. The mobile phase consisted of solvent A, which was a solution of 0.1% acetic acid in LC/MS-grade water, and solvent B, which was a solution of 0.1% formic acid in acetonitrile. A gradient elution method was employed for 5.0 minutes, with a flow rate of 0.4 mL/minutes. […] Injections were performed using 3 μL of the extracted samples. The mass spectrometer parameters were optimized and configured as follows: 25 Arb for sheath gas, 5 Arb for auxiliary gas, and 1 Arb for sweep gas. The temperature of the ion transfer tube and vaporizer was adjusted to 340°C and 360°C, respectively. Argon was used as the collision gas at a pressure of 1.5 mTorr. […] The lower limit of quantification was 5 ng/mL.
Female wild-type, Oatp1a/1b cluster-knockout mice [Oatp1a/1b^(−/−) mice] and Oatp1a/1b^(−/−) mice with transgenic hepatic expression of OATP1B1 [OATP1B1^(tg) mice] or OATP1B3 [OATP1B3^(tg) mice] were all on an FVB background (RRID: IMSR_T000141), and experimental groups were age- and weight-matched for each experiment. Female mice with a deficiency of all Cyp3a isoforms [Cyp3a^(−/−)] were similarly matched with FVB wild-type mice. All mice were bred in-house. Littermates of the same sex and genotype were housed in groups of maximally five animals in a temperature- and light-controlled environment (12-hour light/dark cycles) in cages lined with absorbent bedding. Mice were given free access to standard food and water.
For in vivo pharmacokinetic studies, mice were randomized into experimental groups of equal size.

mice [3] = test: Von Frey hair test (mechanical sensitivity); format: in vivo
Protocol: Von Frey filaments were used as a mechanical sensitivity measurement following administration of letrozole in both chronic and acute treatments, using a strategy developed previously ([24]). After ensuring that the animal is acquainted with the environment, joint pain was directly evaluated by a hind limb withdrawal response to mechanical stimulation applied by the filaments. […] After a single dose, mechanical sensitivity was tested with the Von Frey filaments at 0, 1, 3, 6, and 24 hours after drug administration ([25], [26]). During the chronic treatment of letrozole (0.1 mg/kg/day for 15 days), mechanical sensitivity was measured at baseline, at the end of week 1, and the end of week 2. Analysts were blinded to the composition of the treatment groups.

patients = conditions: 2.5 mg daily for 5 years vs intermittent regimen, randomized phase III; cited from earlier work
Oatp1b2 = test: CDCA-24G plasma biomarker of hepatic Oatp1b2 function in mice; format: in vivo; conditions: single oral letrozole 10 mg/kg, 2 hours
Protocol: A, The levels of CDCA-24G biomarker in plasma were measured via LC/MS-MS in wild-type and Cyp3a^(−/−) mice treated with a single oral administration of letrozole (10 mg/kg) or vehicle. […] Data are shown as mean ± SD. Two-sided, unpaired Student t tests were used to analyze the data and no multiple comparison adjustment was applied. **, P < 0.01 and ****, P < 0.0001 compared with the wild-type group; n = 9 to 10 per group.

mice [4] = test: Photobeam activity open field system (physical activity); format: in vivo
Protocol: An open-field photobeam activity system was used to monitor the motor activity of mice over a period of 12 hours after administration of letrozole ([27], [28]). Spontaneous physical/locomotor activity was assessed using an activity monitoring system consisting of a two-dimensional (X and Y axes) square frame that emits a grid of infrared beams (IR Actimeter and Actitrack software, Panlab, Harvard Apparatus). Animals were placed in a transparent enclosure inside the frame, and movement within the enclosure (general locomotor activity) was recorded as interruptions in the beams. During acute studies, mice were dosed with letrozole (0.5 mg/kg) orally at 5:00 pm and were tested individually for 12 hours during the active/dark phase of the light cycle (6:00 pm–6:00 am). Physical activity of the mice was similarly monitored at baseline and at the end of 15 days of the chronic treatment.

[5] = parameters: method as in earlier work; conditions: patients receiving continuous dosing regimens, prescribing information; cited from earlier work
[6] = OATP1B1^(tg) mice, chronic letrozole 0.1 mg/kg/day for 15 days, 12 hours
[7] = OATP1B1^(tg) mice, single oral letrozole 0.5 mg/kg, 12 hours
[8] = OATP1B3^(tg) mice, chronic letrozole 0.1 mg/kg/day for 15 days, 12 hours
[9] = OATP1B3^(tg) mice, single oral letrozole 0.5 mg/kg, 12 hours
[10] = Oatp1a/1b^(−/−) mice, chronic letrozole 0.1 mg/kg/day for 15 days, 12 hours
[11] = Oatp1a/1b^(−/−) mice, single oral letrozole 0.5 mg/kg, 12 hours
[12] = wild-type mice, chronic letrozole 0.1 mg/kg/day for 15 days, 12 hours
[13] = wild-type mice, letrozole 0.5 mg/kg, 12 h, Table S4
[14] = wild-type mice, single oral letrozole 0.5 mg/kg, 12 hours
[15] = wild-type mice, single oral letrozole 0.5 mg/kg, 12 hours, listed as letrozole

Compound: N#Cc1ccc(C(c2ccc(C#N)cc2)n2cncn2)cc1 [Letrozole]
- lesions in knee joints (histopathologic examination) (mice [1]): synovial hyperplasia, synovitis, and patellar tendinitis
- AUC fold change vs. WT ([2]; Cyp3a^(−/−) vs wild-type mice, letrozole 10 mg/kg oral): 1.59 (1.34–1.90)
- AUC fold change vs. WT ([2]; OATP1B1^(tg) vs wild-type mice, letrozole 10 mg/kg oral): 1.29 (0.94–1.78)
- AUC fold change vs. WT ([2]; OATP1B3^(tg) vs wild-type mice, letrozole 10 mg/kg oral): 1.27 (0.83–1.95)
- AUC fold change vs. WT ([2]; Oatp1a/1b^(−/−) vs wild-type mice, letrozole 10 mg/kg oral): 1.3 (0.92–1.86)
- AUC(0-t) ([2]; AUC0–6h, OATP1B1^(tg) female mice, letrozole 10 mg/kg oral, mean with SEM): 33000 ng·h/mL
- AUC(0-t) ([2]; AUC0–6h, OATP1B3^(tg) female mice, letrozole 10 mg/kg oral, mean with SEM): 32400 ng·h/mL
- AUC(0-t) ([2]; AUC0–6h, Oatp1a/1b^(−/−) female mice, letrozole 10 mg/kg oral, mean with SEM): 33300 ng·h/mL
- AUC(0-t) ([2]; AUC0–6h, wild-type female mice, letrozole 10 mg/kg oral, mean with SEM): 25500 ng·h/mL
- AUC(0-t) ([2]; AUC0–24h, Cyp3a^(−/−) female mice, letrozole 10 mg/kg oral single dose, mean ± SEM): 141000 ng·h/mL
- AUC(0-t) ([2]; AUC0–24h, wild-type female mice, letrozole 10 mg/kg oral single dose, mean ± SEM): 88700 ng·h/mL
- Cmax ([2]; Cyp3a^(−/−) female mice, letrozole 10 mg/kg oral single dose, mean ± SEM): 6820 ng/mL
- Cmax ([2]; OATP1B1^(tg) female mice, letrozole 10 mg/kg oral, mean with SEM): 6550 ng/mL
- Cmax ([2]; OATP1B3^(tg) female mice, letrozole 10 mg/kg oral, mean with SEM): 6670 ng/mL
- Cmax ([2]; Oatp1a/1b^(−/−) female mice, letrozole 10 mg/kg oral, mean with SEM): 6750 ng/mL
- Cmax ([2]; wild-type female mice, letrozole 10 mg/kg oral single dose, Table 1 study, mean ± SEM): 5800 ng/mL
- Cmax ([2]; wild-type female mice, letrozole 10 mg/kg oral, Table 2 study, mean with SEM): 5180 ng/mL
- liver levels, wild-type vs Oatp1a/1b^(−/−) mice ([2]; single oral dose, letrozole 10 mg/kg or exemestane 20 mg/kg): higher levels
- liver concentrations in OATP1B1^(tg) or OATP1B3^(tg) mice ([2]; single oral dose, letrozole 10 mg/kg or exemestane 20 mg/kg, relative to Oatp1a/1b^(−/−) and wild-type): partially restored
- arthralgia-related changes in mechanical sensitivity (mice [3]; Oatp1a/1b^(−/−) mice vs humanized transgenic and wild-type mice, letrozole 0.1 mg/kg daily for 15 days): worst arthralgia-related phenotypic changes in mechanical sensitivity
- time of maximal mechanical sensitivity after drug administration (mice [3]; wild-type mice, single dose of letrozole): 6 h
- mechanical allodynia (paw withdrawal threshold) (mice [3]; wild-type mice, single dose of letrozole 0.1-0.5 mg/kg): reversible, concentration- and time-dependent allodynia
- 7-year disease-free survival, intermittent vs continuous (patients): comparable
- incidence of arthralgia, intermittent vs continuous dosing (patients): only slightly decreased
- increase of CDCA-24G concentration in plasma vs vehicle control (Oatp1b2; Cyp3a^(−/−) mice): 2.17 fold
- increase of CDCA-24G concentration in plasma vs vehicle control (Oatp1b2; wild-type mice): 1.62 fold
- Activ. (global activity) (mice [4]; [6]): 28,800
- Dist. (total distance traveled) (mice [4]; [6]): 380 m
- Locom. (locomotion) (mice [4]; [6]): 25,909
- MF (%) (moving fast) (mice [4]; [6]): 6.22%
- MS (%) (moving slow) (mice [4]; [6]): 11.58%
- RT (%) (resting time % of total duration) (mice [4]; [6]): 82.19%
- Res.T. (resting time) (mice [4]; [6]): 9.86 h
- Stere. (stereotypes) (mice [4]; [6]): 2,892
- Activ. (global activity) (mice [4]; [7]): 31,678
- Dist. (total distance traveled) (mice [4]; [7]): 377 m
- Locom. (locomotion) (mice [4]; [7]): 28,964
- MF (%) (moving fast) (mice [4]; [7]): 6.60%
- MS (%) (moving slow) (mice [4]; [7]): 11.08%
- RT (%) (resting time % of total duration) (mice [4]; [7]): 82.34%
- Res.T. (resting time) (mice [4]; [7]): 9.88 h
- Stere. (stereotypes) (mice [4]; [7]): 2,713
- Activ. (global activity) (mice [4]; [8]): 29,841
- Dist. (total distance traveled) (mice [4]; [8]): 373 m
- Locom. (locomotion) (mice [4]; [8]): 27,036
- MF (%) (moving fast) (mice [4]; [8]): 6.28%
- MS (%) (moving slow) (mice [4]; [8]): 12.01%
- RT (%) (resting time % of total duration) (mice [4]; [8]): 81.71%
- Res.T. (resting time) (mice [4]; [8]): 9.80 h
- Stere. (stereotypes) (mice [4]; [8]): 2,804
- Activ. (global activity) (mice [4]; [9]): 27,095
- Dist. (total distance traveled) (mice [4]; [9]): 340 m
- Locom. (locomotion) (mice [4]; [9]): 24,448
- MF (%) (moving fast) (mice [4]; [9]): 5.72%
- MS (%) (moving slow) (mice [4]; [9]): 11.06%
- RT (%) (resting time % of total duration) (mice [4]; [9]): 83.22%
- Res.T. (resting time) (mice [4]; [9]): 9.98 h
- Stere. (stereotypes) (mice [4]; [9]): 2,647
- Activ. (global activity) (mice [4]; [10]): 26,637
- Dist. (total distance traveled) (mice [4]; [10]): 316 m
- Locom. (locomotion) (mice [4]; [10]): 24,065
- MF (%) (moving fast) (mice [4]; [10]): 5.23%
- MS (%) (moving slow) (mice [4]; [10]): 11.23* %
- RT (%) (resting time % of total duration) (mice [4]; [10]): 83.55* %
- Res.T. (resting time) (mice [4]; [10]): 10.0* hours
- Stere. (stereotypes) (mice [4]; [10]): 2,572
- Activ. (global activity) (mice [4]; [11]): 26,674
- Dist. (total distance traveled) (mice [4]; [11]): 286 m
- Locom. (locomotion) (mice [4]; [11]): 24,494
- MF (%) (moving fast) (mice [4]; [11]): 4.64%
- MS (%) (moving slow) (mice [4]; [11]): 10.40%
- RT (%) (resting time % of total duration) (mice [4]; [11]): 84.96%
- Res.T. (resting time) (mice [4]; [11]): 10.2 h
- Stere. (stereotypes) (mice [4]; [11]): 2,180*
- Activ. (global activity) (mice [4]; [12]): 30,580
- Dist. (total distance traveled) (mice [4]; [12]): 383 m
- Locom. (locomotion) (mice [4]; [12]): 27,528
- MF (%) (moving fast) (mice [4]; [12]): 6.32%
- MS (%) (moving slow) (mice [4]; [12]): 13.30%
- RT (%) (resting time % of total duration) (mice [4]; [12]): 80.34%
- Res.T. (resting time) (mice [4]; [12]): 9.64 h
- Stere. (stereotypes) (mice [4]; [12]): 3,052
- Dist. (total distance traveled) (mice [4]; [13]): 512 m
- Res.T. (resting time) (mice [4]; [13]): 9.06 h
- Activ. (global activity) (mice [4]; [14]): 41163
- Dist. (total distance traveled) (mice [4]; [14]): 512 m
- Locom. (locomotion) (mice [4]; [14]): 37261
- MF (%) (moving fast) (mice [4]; [14]): 8.90%
- MS (%) (moving slow) (mice [4]; [14]): 15.53%
- RT (%) (resting time % of total duration) (mice [4]; [14]): 75.55%
- Res.T. (resting time) (mice [4]; [14]): 9.06 h
- Stere. (stereotypes) (mice [4]; [14]): 3902
- Activ. (global activity) (mice [4]; [15]): 41,163
- Locom. (locomotion) (mice [4]; [15]): 37,261
- Stere. (stereotypes) (mice [4]; [15]): 3,902
- accumulation in plasma [5]: does not substantially accumulate
